Assay [1] has as its target T1, GDAP1ΔTM (Mus musculus, UniProt O88741).
T1 sequence (O88741 1-322): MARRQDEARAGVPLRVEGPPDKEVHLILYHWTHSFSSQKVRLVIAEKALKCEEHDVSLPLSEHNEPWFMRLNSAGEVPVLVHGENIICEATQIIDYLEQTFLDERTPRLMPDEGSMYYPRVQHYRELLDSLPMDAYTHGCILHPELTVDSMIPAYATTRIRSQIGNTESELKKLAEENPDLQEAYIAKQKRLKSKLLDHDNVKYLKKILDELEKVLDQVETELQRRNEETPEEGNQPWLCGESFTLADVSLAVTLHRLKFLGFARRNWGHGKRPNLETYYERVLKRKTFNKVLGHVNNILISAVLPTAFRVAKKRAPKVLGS
Kind of assay: fluorescence polarization, N-terminally fluorescein-labelled protein. Format: binding. For orientation: Polarisation of emitted light reports the rotation of a fluorescent probe.

Assay [2] deals with T1, GDAP1ΔTM. Kind of assay: anti-4HNE Western blot of Michael adduct formation, Hill fit. Format: biochemical.
Assay [3] addresses T2, GDAP1ΔTM (Mus musculus, UniProt O88741, T157P).
T2 sequence (O88741 1-322 T157P): T1 sequence (O88741 1-322) with T157P
Kind of assay: native PAGE titration, band quantification, Hill fit. Format: binding.

In assay [4] the target is T1, GDAP1ΔTM. The description is as above. Format: binding.

Positions count from the first letter of the chain named.

The term Kd denotes the equilibrium constant for the complex coming apart. A high value points to lower affinity. As a reminder, the EC50 is the concentration at which the effect is half-maximal. Low values mean an effect from little substance, high ones a need for much substance.

`O=C(O)CCCCCCCCCCCCCCC(=O)O` [thapsic acid] gave a Kd on GDAP1ΔTM [1] of approximately 34 µM.

For `CCCCCC(O)/C=C/C=O` (stereo not shown) [4-hydroxynonenal], the EC50 at GDAP1ΔTM [2] worked out at 241 ± 52 µM. In addition, the Kd at GDAP1ΔTM [3] is 1330 ± 259 µM; at GDAP1ΔTM [4] it was 398 µM.
